Experimental findings from patent US10172957B2, “Acid-labile lipophilic prodrugs of cancer chemotherapeutic agents” (priority 2011, dated 2019) are described below.

Where two headings read alike, the source gives them in different places. Where only a bound is given, the exact number is not on record here.

The subject of assay [1] is SK-N-AS cells (MDR− Neuroblastoma). The assay is described as follows: MTS proliferation assay using SK-N-AS cells. Format: cell-based. Conditions: Homo sapiens, read-out: IC50 in SK-N-AS. Here is the method:
SK-N-AS cells were plated in appropriate growth medium at 5×10^3 per well in 100 μL in 96 well tissue culture plates, Falcon, one plate for each drug to be tested. Column 1 was blank; it contained medium, but no cells. The plates were incubated overnight at 37° C. in 5% CO2 to allow attachment.
Drug diluted in culture media was added to the cells at a concentration of 0.005 nM to 10 μM, in quadruplicate. After 48-72 hours of drug exposure, the MTS agent was added to all wells and incubated 1-6 hrs (37° C., 5% CO2), depending on cell type, as per CellTiter 96® AQueous Non-Radioactive Cell Proliferation Assay (MTS), Promega. Plates were processed using a Bio-Tek Synergy HT Multi-detection microtiter plate reader at 490 nanometer wavelength and data were processed with KC4V.3 software. Data plots of drug concentration vs. absorbance were plotted and the concentration resulting in 50% inhibition (IC50) was extrapolated for each of the tested compounds.
As summarized in Table 1, the IC50 value for each tested compound in the SK-N-AS cell line was determined. The clinical comparator drug, paclitaxel, was included in the experiment to allow comparison of the results of the candidate compounds to a clinically relevant standard in the taxane class.
(Tetrazolium dyes change colour on reduction, which living cells bring about.)

Assay [2] has as its system MES-SA uterine sarcoma line. The assay is described as follows: MTT-based cytotoxicity assay, MES-SA. Format: cell-based, human. The settings on record: read-out: IC50 MESSA (Hs). The source says: (§1) A second evaluation of the cytotoxicity of the acid labile, lipophilic molecular conjugates was undertaken.
(§2) These lines included a uterine sarcoma line, MES-SA, and its doxorubicin-resistant subline, MES-SA/Dx5. See W. G. Harker, F. R MacKintosh, and B. I. Sikic. Development and characterization of a human sarcoma cell line, MES-SA, sensitive to multiple drugs. Cancer Research 43: 4943-4950 (1983); W. G. Harker and B. I. Sikic. Multidrug (pleiotropic) resistance in doxorubicin-selected variants of the human sarcoma cell line MES-SA. Cancer Research 45: 4091 4096 (1985).
(§3) MES-SA/Dx5 cells express high levels of ABCB1 (MDR1) mRNA and its gene product, the P-glycoprotein. MES-SA and MES-SA/Dx5 were purchased from the American Type Culture Collection (ATCC, Manassas, Va.).

Assay [3] has as its system MES-SA/Dx5 doxorubicin-resistant subline (MDR+). In words: cells. Format: cell-based, human. The settings on record: for Degree of resistance (MESSA/Dx5): IC50 of the resistant line divided by IC50 of sensitive MES-SA cells.
Excerpt: as §1, §2, §3

The next assay relates to CEM/VM-1-5 cells (MDR+). The assay is described as follows: cells. Format: cell-based, human. The settings on record: for Degree of resistance (CEM/VM-1-5): IC50 of the resistant line divided by IC50 of sensitive CEM cells. The source says:
A second evaluation of the cytotoxicity of the acid labile, lipophilic molecular conjugates was undertaken. […]
(§4) The second set of cells tested, CCRF-CEM or simply CEM, were derived from the blood of a patient with acute lymphoblastic leukemia. G. E. Foley, H. Lazarus, S. Farber, B. G. Uzman, B. A. Boone, and R E. McCarthy. Continuous culture of human lymphoblasts from peripheral blood of a child with acute leukemia. Cancer 18: 522-529 (1965). The subline CEM/VLB100 was developed to be resistant to up to vinblastine at 100 ng/ml. W. T. Beck, T. J. Mueller, and L. R. Tanzer. Altered surface membrane glycoproteins in Vinca alkaloid-resistant human leukemic lymphoblasts. Cancer Research 39: 2070-2076 (1979). Drug resistance is achieved by overexpression of the MDR1 gene. Resistance in the CEM subline designated CEM/VM-1-5, however, is “atypical.” M. K. Danks, J. C. Yalowich, and W. T. Beck. Atypical multiple drug resistance in a human leukemic cell line selected for resistance to teniposide (VM-26). Cancer Research 47: 1297-1301 (1987). The classes of drugs included in the “classic” multiple drug resistance phenotype are Vinca alkaloids, anthracyclines, epipodophyllotoxins and antibiotics. However, CEM/VM-1-5 cells retain sensitivity to the Vinca alkaloids despite resistance and cross-resistance to etoposide, anthracyclines and mitoxantrone. Danks, M. K.; Schmidt, C. A.; Cirtain, M. C.; Suttle, D. P.; Beck, W. T., Altered catalytic activity of and DNA cleavage by DNA topoisomerase II from human leukemic cells selected for resistance to VM-26. Biochemistry 1988, 27, 8861-8869. Resistance in CEM/VM-1-5 cells is effected by over expression of the […]. CEM, CEM/VLB100 and CEM/VM-1-5 cells were obtained from Dr. WT Beck, University of Illinois at Chicago.

For a further assay, the system named is CCRF-CEM (CEM) cells. The assay is described as follows: MTT-based cytotoxicity assay, CEM. Format: cell-based, human.
Excerpt: as §1, §2, §4

The next assay deals with CEM/VLB100 cells (MDR+). In words: cells. Format: cell-based, human. The settings on record: for Degree of resistance (CEM/VLB100): IC50 of the resistant line divided by IC50 of sensitive CEM cells.
Excerpt: as §1, §2, §4

[4] abbreviates: SK-N-AS (MDR− Neuroblastoma), MTS, 48-72 hours drug exposure.
[5] abbreviates: Homo sapiens, read-out: IC50 CEM/VM-1-5 (MDR + HTL), CEM/VM-1-5, MTT.

As to `CCCCCCCCCCC1(C)OCC(COC(=O)O[C@@H]2C(=O)C=C(C)[C@@H]3C[C@H]4OC(=O)[C@H](OC(=O)CC(O)(C(C)C)C(C)C)[C@H]5[C@@H](C)[C@@H](O)[C@]6(O)OC[C@@]54[C@H]6[C@@]23C)O1` (stereo partly drawn) [ART 332], the IC50 in assay [1] (setting [4]) was 1.1 ± 0.5 nM.
For the compound `C=CCCCCOC(=O)O[C@@H]1C(=O)C=C(C)[C@@H]2C[C@H]3OC(=O)C(OC(=O)CC(O)(C(C)C)C(C)C)C4[C@@H](C)[C@@H](O)[C@]5(O)OC[C@@]43C5[C@@]12C` (stereo partly drawn) [ART 448], in assay [1] (setting [4]), the IC50 worked out at 5 ± 0.7 nM.
Still for that read-out and setting: the value for `CC/C=C\C/C=C\C/C=C\C/C=C\C/C=C\C/C=C\CCCOC(=O)O[C@@H]1C(=O)C=C(C)[C@@H]2C[C@H]3OC(=O)C(OC(=O)CC(O)(C(C)C)C(C)C)C4[C@@H](C)[C@@H](O)[C@]5(O)OC[C@@]43C5[C@@]12C` (stereo partly drawn) [ART 449] was 4 ± 0.5 nM.
For the compound `CCOC(CBr)O[C@@H]1C(=O)C=C(C)[C@@H]2C[C@H]3OC(=O)C(OC(=O)CC(O)(C(C)C)C(C)C)C4[C@@H](C)[C@@H](O)[C@]5(O)OC[C@@]43C5[C@@]12C` (stereo partly drawn) [ART 470], the IC50 in assay [1] (setting [4]) came to 349 ± 15 nM.
In the case of `CC1=CC(=O)[C@@H](OC(CBr)OC(C)(C)C)[C@]2(C)C3[C@]45CO[C@@]3(O)[C@H](O)[C@H](C)C4C(OC(=O)CC(O)(C(C)C)C(C)C)C(=O)O[C@@H]5C[C@@H]12` (stereo partly drawn) [ART 471], in assay [1] (setting [4]), the IC50 was found to be 262 ± 12 nM.
In the case of `CCCCCCCCCCCCCCCCCCOC(CBr)O[C@@H]1C(=O)C=C(C)[C@@H]2C[C@H]3OC(=O)C(OC(=O)CC(O)(C(C)C)C(C)C)C4[C@@H](C)[C@@H](O)[C@]5(O)OC[C@@]43C5[C@@]12C` (stereo partly drawn) [ART 472], the IC50 in assay [1] (setting [4]) was 1.19 ± 0.5 nM.
As for `CC1=CC(=O)[C@@H](OC(CBr)OC2CCCCC2)[C@]2(C)C3[C@]45CO[C@@]3(O)[C@H](O)[C@H](C)C4C(OC(=O)CC(O)(C(C)C)C(C)C)C(=O)O[C@@H]5C[C@@H]12` (stereo partly drawn) [ART 473], the IC50 in assay [1] (setting [4]) was 12.6 ± 0.9 nM.
For `CC(=O)O[C@H]1C(=O)[C@@]2(C)[C@H]([C@H](OC(=O)c3ccccc3)[C@]3(O)C[C@H](OC(=O)[C@H](O)[C@@H](NC(=O)c4ccccc4)c4ccccc4)C(C)=C1C3(C)C)[C@]1(OC(C)=O)CO[C@@H]1C[C@@H]2O` [Paclitaxel, paclitaxel, reference compound], the IC50 was 0.05 ± 0.01 nM in assay [1] (SK-N-AS); 9 ± 7 nM in assay [2] (Homo sapiens, MES-SA); less than 11 nM in the assay with CEM/VM-1-5 cells (MDR+) (setting [5]). For the same compound, the “Degree of resistance (MESSA/Dx5)” value in assay [3] came out at 3105 ± 2416. Besides, the “Degree of resistance (CEM/VM-1-5)” value in the assay on CEM/VM-1-5 cells (MDR+) stood at 4.
Regarding `CC[C@]1(O)C[C@@H]2CN(CCc3c([nH]c4ccccc34)[C@@](C(=O)OC)(c3cc4c(cc3OC)N(C)[C@H]3[C@@](O)(C(=O)OC)[C@H](OC(C)=O)[C@]5(CC)C=CCN6CC[C@]43[C@@H]65)C2)C1` [Vinblastine, vinblastine, reference compound], the IC50 in assay [2] (Homo sapiens, MES-SA) amounted to 1.1 ± 0.3 nM; in assay [3] (Homo sapiens, MES-SA/Dx5, read-out: IC50 MESSA/Dx5 (MDR + Hs)), 43 ± 12 nM; in the assay with CCRF-CEM (CEM) cells (Homo sapiens, CCRF-CEM, read-out: IC50 CEM (HTL), CEM human T-lymphoblastoid, MTT), 1 ± 0.8 nM; in the assay with CEM/VM-1-5 cells (MDR+) (setting [5]) it was 1.3 ± 0.9 nM. In addition, the “Degree of resistance (MESSA/Dx5)” value in assay [3] worked out at 38.5 ± 0.7. In addition, the “Degree of resistance (CEM/VLB100)” value in the assay with CEM/VLB100 cells (MDR+) is 255 ± 127. The “Degree of resistance (CEM/VM-1-5)” value in the assay on CEM/VM-1-5 cells (MDR+) is 1.2 ± 0.07.
As to doxorubicin [reference compound], the IC50 in assay [2] (MES-SA human sarcoma, MTT) turned out to be 2 nM; in assay [3] (MES-SA/Dx5, MTT, read-out: IC50 MESSA/Dx5 (MDR + Hs)), 97 nM; in the assay on CCRF-CEM (CEM) cells (CEM human T-lymphoblastoid, MTT, read-out: IC50 CEM (HTL)), 14 nM; in the assay with CEM/VLB100 cells (MDR+) (CEM/VLB100, MTT, read-out: IC50 CEM/VLB100 (MDR + HTL)), 2100 nM; in the assay on CEM/VM-1-5 cells (MDR+) (CEM/VM-1-5, MTT, read-out: IC50 CEM/VM-1-5 (MDR + HTL)), 3060 nM. The “Degree of resistance (MESSA/Dx5)” value in assay [3] is 49. Further, the “Degree of resistance (CEM/VLB100)” value in the assay with CEM/VLB100 cells (MDR+) was found to be 150. The “Degree of resistance (CEM/VM-1-5)” value in the assay on CEM/VM-1-5 cells (MDR+) is listed as 219.
